# Measurements published in patent US20230143612A1 (Arbutus Biopharma Corporation, priority 2020, published 2023).
# Target: PD-L1 His protein / PD-1 Fc protein (Homo sapiens, UniProt Q9NZQ7)
# Experiment: HTRF Assay (PD-1/PD-L1 interaction)
# Format: binding
# Conditions: PD-L1 His 6 nM, PD-1 Fc 6 nM
# In short: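 HTRF: PD-L1 His (6 nM final), compound (3-fold dilutions, 20 μM to 0.001 μM final) and PD-1 Fc (6 nM final) preincubated 15 min at room temperature. Anti-human IgG-XL665 and anti-6HIS Tb cryptate (mixed at 6.7 nM and 0.35 nM) then added for 1 h at room temperature before reading.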
# Sequence of PD-L1 His protein / PD-1 Fc protein (Q9NZQ7 19-238 limits assumed): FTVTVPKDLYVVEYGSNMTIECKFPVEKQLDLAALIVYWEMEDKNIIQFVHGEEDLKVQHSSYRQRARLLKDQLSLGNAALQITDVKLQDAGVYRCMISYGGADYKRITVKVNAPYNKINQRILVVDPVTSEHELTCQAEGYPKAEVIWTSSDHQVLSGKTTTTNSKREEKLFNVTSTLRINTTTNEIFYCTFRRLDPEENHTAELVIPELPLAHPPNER
row,SMILES,IC50 [nM]
1,"COc1nc(-c2cccc(-c3cccc(-c4ccn5c(=O)c(CNCCn6cnnc6)cnc5c4)c3Cl)c2Cl)ccc1CNC[C@@H]1CCC(=O)N1 [Example 216, 8-[2-Chloro-3-[2-chloro-3-[6-methoxy-5-[[[(2S)-5-oxopyrrolidin-2-yl]methylamino]methyl]-2-pyridyl]phenyl]phenyl]-3-[[2-(1,2,4-triazol-4-yl)ethylamino]methyl]pyrido[1,2-a]pyrimidin-4-one]",0.1
2,"CNC(=O)C[C@H](O)CNCc1cnc2cc(-c3cccc(-c4cccc(-c5cc(F)c(CNC[C@@H]6CCC(=O)N6)c(OC)n5)c4Cl)c3Cl)ccn2c1=O [Example 293, (3S)-4-[[8-[2-Chloro-3-[2-chloro-3-[4-fluoro-6-methoxy-5-[[[(2S)-5-oxopyrrolidin-2-yl]methylamino]methyl]-2-pyridyl]phenyl]phenyl]-4-oxo-pyrido[1,2-a]pyrimidin-3-yl]methylamino]-3-hydroxy-N-methyl-butanamide]",0.1
3,"COc1nc(-c2cccc(-c3cccc(-c4ccn5c(=O)c(CNCCN6CCNC(=O)C6)cnc5c4)c3Cl)c2Cl)ccc1CNC[C@@H]1CCC(=O)N1 [Example 264, (S)-8-(2,2′-dichloro-3′-(6-methoxy-5-((((5-oxopyrrolidin-2-yl)methyl)-amino)-methyl)-pyridin-2-yl)-[1,1′-biphenyl]-3-yl)-3-(((2-(3-oxopiperazin-1-yl)ethyl)amino)methyl)-4H-pyrido[1,2-a]pyrimidin-4-one]",0.1
4,"COc1nc(-c2cccc(-c3cccc(-c4ccc5c(c4)CCCNC5)c3Cl)c2Cl)ccc1CNC[C@@H]1CCC(=O)N1 [Example 344, (S)-5-((((6-(2,2′-Dichloro-3′-(2,3,4,5-tetrahydro-1H-benzo[c]azepin-7-yl)-[1,1′-biphenyl]-3-yl)-2-methoxypyridin-3-yl)methyl)amino)methyl)pyrrolidin-2-one]",570
5,"Cc1c(-c2ccn3c(=O)c(CNC[C@@H]4CCC(=O)N4)cnc3c2)cccc1-c1cccc(-c2ccc(CNC[C@@H]3CCC(=O)N3)c(Cl)c2)c1Cl [Example 67, 8-(2′,3″-Dichloro-2-methyl-4″-(((((S)-5-oxopyrrolidin-2-yl)methyl)amino)methyl)-[1,1′:3′,1″-terphenyl]-3-yl)-3-(((((S)-5-oxopyrrolidin-2-yl)methyl)amino)methyl)-4H-pyrido[1,2-a]pyrimidin-4-one]",3.5
6,"COC(=O)C(C)(C)CNCc1nn2cc(-c3cccc(-c4cccc(-c5ccc(CNC[C@@H]6CCC(=O)N6)c(OC)n5)c4Cl)c3Cl)cc2c(=O)n1C [Example 495, Methyl 3-[[6-[2-chloro-3-[2-chloro-3-[6-methoxy-5-[[[(2S)-5-oxopyrrolidin-2-yl]methylamino]methyl]-2-pyridyl]phenyl]phenyl]-3-methyl-4-oxo-pyrrolo[2,1-f][1,2,4]triazin-2-yl]methylamino]-2,2-dimethyl-propanoate]",0.7
7,"CNc1nc(-c2cccc(-c3cccc(-c4ccn5c(=O)c(CNC[C@@H]6CCC(=O)N6)cnc5c4)c3C)c2Cl)ccc1CNC[C@@H]1CCC(=O)N1 [Example 73, 8-(2′-Chloro-2-methyl-3′-(6-(methylamino)-5-(((((S)-5-oxopyrrolidin-2-yl)methyl)amino)methyl)pyridin-2-yl)-[1,1′-biphenyl]-3-yl)-3-(((((S)-5-oxopyrrolidin-2-yl)methyl)amino)methyl)-4H-pyrido[1,2-a]pyrimidin-4-one]",6.3
8,"COc1nc(-c2cccc(-c3cccc(-c4ccn5c(=O)c(CNC[C@H]6C[C@H]6CO)cnc5c4)c3Cl)c2Cl)ccc1CNC[C@@H]1CCC(=O)N1 (racemic) [Example 225, 8-(2,2′-dichloro-3′-(6-methoxy-5-(((((S)-5-oxopyrrolidin-2-yl)methyl)-amino)-methyl)-pyridin-2-yl)-[1,1′-biphenyl]-3-yl)-3-(((((1S,2R)-2-(hydroxymethyl)-cyclopropyl)methyl)amino)methyl)-4H-pyrido[1,2-a]pyrimidin-4-one]",0.2
9,"COc1nc(-c2cccc(-c3cccc(-c4ccn5c(=O)c(C)c(CNC[C@@H]6CCC(=O)N6)nc5c4)c3Cl)c2Cl)ccc1CNC[C@@H]1CCC(=O)N1 [Example 372, 8-(2,2′-Dichloro-3′-(6-methoxy-5-(((((S)-5-oxopyrrolidin-2-yl)methyl)amino)methyl)pyridin-2-yl)-[1,1′-biphenyl]-3-yl)-3-methyl-2-(((((S)-5-oxopyrrolidin-2-yl)methyl)amino)methyl)-4H-pyrido[1,2-a]pyrimidin-4-one]",60
10,"COc1nc(-c2cccc(-c3cccc(-c4ccn5c(=O)c(CNC[C@@H](O)CC(N)=O)cnc5c4)c3Cl)c2Cl)ccc1CNC[C@@H]1CCC(=O)N1 [Example 238, (3S)-4-[[8-[2-chloro-3-[2-chloro-3-[6-methoxy-5-[[[(2S)-5-oxopyrrolidin-2-yl]methylamino]methyl]-2-pyridyl]phenyl]phenyl]-4-oxo-pyrido[1,2-a]pyrimidin-3-yl]methylamino]-3-hydroxy-butanamide]",0.1
11,"COc1nc(-c2cccc(-c3cccc(-c4ccc5c(OC)c(CNC[C@@H]6CCC(=O)N6)cc(Cl)c5n4)c3Cl)c2Cl)cc(F)c1CNC[C@@H]1CCC(=O)N1 [Example 398, (S)-5-((((8-Chloro-2-(2,2′-dichloro-3′-(4-fluoro-6-methoxy-5-(((((S)-5-oxopyrrolidin-2-yl)methyl)amino)methyl)pyridin-2-yl)-[1,1′-biphenyl]-3-yl)-5-methoxyquinolin-6-yl)methyl)amino)methyl)pyrrolidin-2-one]",28
12,"COC(=O)C[C@H](O)CNCc1cnc2cc(-c3cccc(-c4cccc(-c5ccc(CNC[C@@H]6CCC(=O)N6)c(OC)n5)c4Cl)c3Cl)ccn2c1=O [Example 220, Methyl (3S)-4-[[8-[2-chloro-3-[2-chloro-3-[6-methoxy-5-[[[(2S)-5-oxopyrrolidin-2-yl]methylamino]methyl]-2-pyridyl]phenyl]phenyl]-4-oxo-pyrido[1,2-a]pyrimidin-3-yl]methylamino]-3-hydroxy-butanoate]",0.1
13,"COc1nc(-c2cccc(-c3cccc(-c4ccn5c(=O)c(CNC[C@@H](O)CC(=O)O)cnc5c4)c3Cl)c2Cl)ccc1CNC[C@@H]1CCC(=O)N1 [Example 126, (S)-4-(((8-(2,2′-Dichloro-3′-(6-methoxy-5-(((((S)-5-oxopyrrolidin-2-yl)methyl)amino)methyl)pyridin-2-yl)-[1,1′-biphenyl]-3-yl)-4-oxo-4H-pyrido[1,2-a]pyrimidin-3-yl)methyl)amino)-3-hydroxybutanoic acid]",0.4
14,"CN1CCC(NCCO)c2ccc(-c3cccc(-c4cccc(-c5ccc6c(n5)N(C)CCC6NCCO)c4Cl)c3Cl)nc21 (mixture of isomers) [Example 34, 2,2′-(((2,2′-Dichloro-[1,1′-biphenyl]-3,3′-diyl)bis(1-methyl-1,2,3,4-tetrahydro-1,8-naphthyridine-7,4-diyl))bis(azanediyl))bis(ethan-1-ol)]",4.8
15,"COc1nc(-c2cccc(-c3cccc(-c4cc5c(=O)n(C)c(CNCCO)nn5c4)c3Cl)c2Cl)cc(Cl)c1CNC[C@@H]1CCC(=O)N1 [Example 491, (S)-6-(2,2′-Dichloro-3′-(4-chloro-6-methoxy-5-((((5-oxopyrrolidin-2-yl)methyl)amino)methyl)pyridin-2-yl)-[1,1′-biphenyl]-3-yl)-2-(((2-hydroxyethyl)amino)methyl)-3-methylpyrrolo[2,1-f][1,2,4]triazin-4(3H)-one]",0.7
16,"COc1nc(-c2cccc(-c3cccc(-c4cc5c(=O)n(C)c(CNCC(C)(C)F)nn5c4)c3Cl)c2Cl)ccc1CNC[C@@H]1CCC(=O)N1 [Example 462, (S)-6-(2,2′-Dichloro-3′-(6-methoxy-5-((((5-oxopyrrolidin-2-yl)methyl)amino)methyl)pyridin-2-yl)-[1,1′-biphenyl]-3-yl)-2-(((2-fluoro-2-methylpropyl)amino)methyl)-3-methylpyrrolo[2,1-f][1,2,4]triazin-4(3H)-one]",58
17,"COc1nc(-c2cccc(-c3cccc(-c4ccn5c(=O)c(CNC[C@@H]6CCC(=O)N6)cnc5c4)c3Cl)c2Cl)ccc1CNCCNC(C)=O [Example 103, (S)—N-(2-(((6-(2,2′-Dichloro-3′-(4-oxo-3-((((5-oxopyrrolidin-2-yl)methyl)amino)methyl)-4H-pyrido[1,2-a]pyrimidin-8-yl)-[1,1′-biphenyl]-3-yl)-2-methoxypyridin-3-yl)methyl)amino)ethyl)acetamide]",5
18,"N#CCCOc1cc(/C=C/c2cccc(-c3cccc(-c4ccn5c(=O)c(CNC[C@@H]6CCC(=O)N6)cnc5c4)c3Cl)c2Cl)c(Cl)cc1CN1CC[C@H](C(=O)O)C1 [Example 173, (S)-1-(5-Chloro-2-(2-cyanoethoxy)-4-((E)-2-(2,2′-dichloro-3′-(4-oxo-3-(((((S)-5-oxopyrrolidin-2-yl)methyl)amino)methyl)-4H-pyrido[1,2-a]pyrimidin-8-yl)-[1,1′-biphenyl]-3-yl)vinyl)benzyl)pyrrolidine-3-carboxylic acid]",0.4
19,"COc1nc(-c2cccc(-c3cccc(-c4ccc5nc(CNC[C@@H]6CCC(=O)N6)oc5c4)c3Cl)c2Cl)ccc1CNC[C@@H]1CCC(=O)N1 [Example 248, (S)-5-((((6-(2,2′-Dichloro-3′-(2-(((((S)-5-oxopyrrolidin-2-yl)methyl)amino)methyl)benzo[d]oxazol-6-yl)-[1,1′-biphenyl]-3-yl)-2-methoxypyridin-3-yl)methyl)amino)methyl)pyrrolidin-2-one]",250
20,"COc1nc(-c2cccc(-c3cccc(-c4ccn5c(=O)c(CNC[C@@H]6CCC(=O)N6)c(OC)nc5c4)c3Cl)c2Cl)ccc1CNC[C@@H]1CCC(=O)N1 [Example 201, 8-(2,2′-Dichloro-3′-(6-methoxy-5-(((((S)-5-oxopyrrolidin-2-yl)methyl)amino)methyl)pyridin-2-yl)-[1,1′-biphenyl]-3-yl)-2-methoxy-3-(((((S)-5-oxopyrrolidin-2-yl)methyl)amino)methyl)-4H-pyrido[1,2-a]pyrimidin-4-one]",100
